This note sets out measurements from article PMC3929664, “A Panel of Diverse Assays to Interrogate the Interaction between Glucokinase and Glucokinase Regulatory Protein, Two Vital Proteins in Human Disease” (PLoS ONE, 2014).

Structures can show the parent of a compound that is named as a salt.

This experiment deals with T1, GCK enzymatic reaction inhibited by GKRP (recombinant human GCK and GKRP) (Homo sapiens, UniProt P35557+Q14397).
T1 construct: made in house
T1 sequence (P35557 1-465): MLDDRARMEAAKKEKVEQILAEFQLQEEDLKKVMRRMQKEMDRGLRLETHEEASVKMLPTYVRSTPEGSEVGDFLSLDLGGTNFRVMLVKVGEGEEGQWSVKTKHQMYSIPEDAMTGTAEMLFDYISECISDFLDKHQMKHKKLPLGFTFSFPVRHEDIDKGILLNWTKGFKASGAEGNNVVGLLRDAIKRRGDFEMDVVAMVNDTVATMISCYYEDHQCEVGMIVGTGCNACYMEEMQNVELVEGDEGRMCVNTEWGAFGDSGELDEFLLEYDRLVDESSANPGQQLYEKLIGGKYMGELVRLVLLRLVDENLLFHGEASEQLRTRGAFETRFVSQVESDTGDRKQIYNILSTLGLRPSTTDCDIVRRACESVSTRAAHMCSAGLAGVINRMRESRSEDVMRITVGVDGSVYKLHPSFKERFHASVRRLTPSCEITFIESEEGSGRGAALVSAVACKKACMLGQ
T1 sequence (Q14397 1-625): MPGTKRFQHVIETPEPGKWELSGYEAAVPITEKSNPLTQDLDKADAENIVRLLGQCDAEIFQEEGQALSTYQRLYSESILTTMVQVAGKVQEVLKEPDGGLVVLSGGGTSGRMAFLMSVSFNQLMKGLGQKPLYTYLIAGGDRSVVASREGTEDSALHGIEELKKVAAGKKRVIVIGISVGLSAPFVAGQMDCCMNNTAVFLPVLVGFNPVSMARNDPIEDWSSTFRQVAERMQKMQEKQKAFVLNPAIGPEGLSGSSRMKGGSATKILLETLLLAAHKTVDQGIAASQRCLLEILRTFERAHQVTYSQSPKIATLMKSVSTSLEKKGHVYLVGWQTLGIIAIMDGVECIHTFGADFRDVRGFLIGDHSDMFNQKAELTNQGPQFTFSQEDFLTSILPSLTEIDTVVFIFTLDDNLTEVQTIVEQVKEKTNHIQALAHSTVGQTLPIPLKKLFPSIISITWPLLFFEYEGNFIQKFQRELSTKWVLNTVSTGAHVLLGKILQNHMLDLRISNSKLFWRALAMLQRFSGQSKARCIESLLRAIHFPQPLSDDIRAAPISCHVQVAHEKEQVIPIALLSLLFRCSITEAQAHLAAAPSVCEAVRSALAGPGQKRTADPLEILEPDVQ
Briefly: Bioluminescence assay (ADP-Glo) of the GCK enzyme reaction with GKRP. To be noted: for LOPAC1280 screen outcome: 2 µM S6P; for response across formats (ADP only, GCK only, GCK-GKRP): 0.04 mM ADP, 4 nM GCK, 15 nM GCK with 15 nM GKRP. The format is biochemical. On the procedure: A luminescence-based assay was developed for detection of ADP generation by recombinant GST-GCK (ADP-Glo™ Kinase Assay; Promega). Final reaction conditions included 25 mM HEPES, 25 mM KCl, 2 mM MgCl2, 1 mM DTT, 0.025% BSA, 0.01% Tween-20, 5 mM glucose, and concentrations of GST-GCK and FLAG-GKRP as indicated, and the reaction was initiated by addition of ATP to a final concentration of 0.4 mM. The reaction was terminated and luminescence generated using ADP-Glo™ Reagent and Kinase Detection Reagent (both Promega). In 1536-well plate format, luminescence enzyme assay buffer was dispensed (2 µl/well) using a BioRAPTR into white 1536-well medium binding plates and initiated by addition of 1 µl 1.2 mM ATP. After lidded incubation for the times indicated at room temperature, 2.5 µl of ADP-Glo™ Reagent was added to each well and plates were incubated with lidding for 60 minutes at room temperature. Following 5 µl addition per well of Kinase Detection Reagent, plates were incubated with lidding for a further 30 minutes at room temperature before luminescent detection using a ViewLux Microplate Imager (PerkinElmer). For the LOPAC^1280 library screen, column 1 was all components with DMSO (maximum signal) and column 3 was no GCK with DMSO (minimum signal). These two control columns were used for data normalization. The final HTS protocol is in Table S3, and the data have been deposited in PubChem (AID 743206).
S6P, F1P, and glucose were dissolved in water; GKAs were dissolved in DMSO.
The firefly luciferase enzyme utilizes luciferin and ATP to generate bioluminescence, and the coupling of ATP-dependent kinases to luciferase activity has enabled kinase activity to be measured quantitatively by luminescence measurements in high-throughput screens. The ADP-Glo™ assay, utilizing a two-step luciferase-based ADP-detection protocol, was employed to measure GCK activity ( Figure 1C ). Initial validation was carried out in 384-well plate format, and focused on GCK in the absence of GKRP to test suitability of the ADP-Glo™ format for the GCK enzyme. A titration of 14 GCK concentrations (1.5–100 nM; n = 8 for each concentration) was assessed at 5 mM glucose and 0.4 mM ATP at pH 7.4. The reaction was incubated for 45 minutes at room temperature. To estimate percent conversion of ATP to ADP, mixtures of ATP and ADP (total concentration 0.4 mM) were tested in duplicate, containing 0, 3, 5, 10, 30, 50, 70, and 100% ADP. The luminescence value at 10% ADP corresponded to the luminescence generated by 4 nM GCK (Figure S7). The ADP-Glo™ kit is linear throughout the range tested and provides an excellent range of detection.
The effects of GKRP inhibition were then assessed using the same reaction conditions at pH 7.1. ADP generation was measured using a matrix of five concentrations each of GCK and GKRP (0, 5, 10, 15, and 20 nM) in quadruplicate ( Figure 5A ). Reactions were incubated for 75 minutes. Luminescence of 15 nM GCK was reduced by approximately 60% by 15 nM GKRP, and the mean S/B at 15 nM GCK +15 nM GKRP was 3.7.
Accordingly, the bioluminescence reaction was capable of measuring GCK enzymatic activity and its inhibition by GKRP. We therefore pursued miniaturization of the assay to 1536-well plate format and tested the effects of S6P and F1P in three different assay formats: 0.04 mM ADP in the absence of GCK and GKRP, 4 nM GCK, and 15 nM GCK with 15 nM GKRP ( Figure 5B ). All assays provided robust luminescence signal in the absence of F1P or S6P (S/B >4.0).

With `O=C(O)C1=CC(=C(c2ccc(O)c(C(=O)O)c2)c2ccc(O)c(C(=O)O)c2)C=CC1=O` [ATA, aurintricarboxylic acid], the LOPAC1280 screen outcome (15 nM GCK, 15 nM GKRP) is “inhibitors of the GCK-GKRP interaction”.

Turning to `O=C(COP(=O)(O)O)[C@@H](O)[C@H](O)[C@H](O)CO` [F1P, fructose 1-phosphate], the “response across formats (ADP only, GCK only, GCK-GKRP)” value is “dependent on the presence of GKRP”. For the setting “15 nM GCK, 15 nM GKRP, 75 minutes, mean ± SD, read-out: EC50 (activation of GCK enzymatic reaction, increase in luminescence)”, the EC50 was 1000 ± 200 nM.

On to `O=P(O)(O)OC[C@@H](O)[C@@H](O)[C@H](O)[C@@H](O)CO` [S6P, sorbitol 6-phosphate], for which the “response across formats (ADP only, GCK only, GCK-GKRP)” value is reported as “dependent on the presence of GKRP”. In addition, the IC50 (15 nM GCK, 15 nM GKRP, 75 minutes, mean ± SD, read-out: IC50 (decrease in luminescence)) worked out at 5 ± 0.6 nM.

On to `Cc1ccc(C(=O)Nc2ccc(S(=O)(=O)O)c3cc(S(=O)(=O)O)cc(S(=O)(=O)O)c23)cc1NC(=O)c1cccc(NC(=O)Nc2cccc(C(=O)Nc3cc(C(=O)Nc4ccc(S(=O)(=O)O)c5cc(S(=O)(=O)O)cc(S(=O)(=O)O)c45)ccc3C)c2)c1` [suramin sodium salt], for which the LOPAC1280 screen outcome (15 nM GCK, 15 nM GKRP) was “inhibitors of the GCK-GKRP interaction”.
